Like-named read-outs stand apart in the source and are kept apart here.
Legend:
[1] = tested on: HCC827 cells (EGFR delE746-A750); test: Cell proliferation (CellTiter Glo, 72 hr) in HCC827 cells; type: cell-based, human; conditions: for GI50: Homo sapiens, read-out: HCC827 GI50
Experimental: (§1) A431 human epidermoid carcinoma, H1975 human NSCLC and HCC827 human NSCLC adenocarcinoma cells were obtained from the American Type Culture Center (Manassas, Va.). A431 cells were grown in DMEM (Invitrogen, Carlsbad, Calif.) supplemented with 10% FBS (HyClone, South Logan, Utah) and 1% Penicillin-Streptomycin (P/S, Lonza, Walkersville, Md.).
(§2) Cells were plated in Growth Media supplemented with 5% FBS and 1% P/S at a density of 3,000 cells per well in 96 well tissue culture plates (Corning). […] Growth inhibition (GI50) values were determined by Graph Pad Prism.

A431 cells (WT EGFR) = test: Cell proliferation (CellTiter Glo, 72 hr) in A431 cells; type: cell-based; conditions: Homo sapiens, read-out: WT EGFR GI50
Experimental: as §1, §2

EGFR-WT = EGFR-WT (Homo sapiens (Human), UniProt P00533); test: Omnia assay, potency against EGFR (WT) active enzyme; type: biochemical; conditions: [EGFR-WT]=5 nM, [ATP]=15 uM, 30 min pre-incubation
Experimental: Kinase reactions were started with the addition of 45 μL of the ATP/Tyr-Sox peptide substrate mix and monitored every 71 seconds for 60 minutes at λex360/λem485 in a Synergy^4 plate reader from BioTek (Winooski, Vt.).

[2] = tested on: H1975 cells (EGFR L858R/T790M); test: Cell proliferation (CellTiter Glo, 72 hr) in H1975 cells; type: cell-based, human; conditions: for GI50: Homo sapiens, read-out: H1975 GI50
Experimental: as §1, §2

[3] = target: EGFR delE746-A750 deletion mutation (HCC827 cells) (Homo sapiens (Human), UniProt P00533, DEL746-750); test: Phospho-EGFR signaling (immunoblotting, 1 hr) in HCC827 cells; type: cell-based; conditions: signaling EC50 WT (A431) / HCC827
Experimental: as §1
(§3) All primary antibodies were obtained from Cell Signaling (Danvers, Mass.) and used at 1:1000. Secondary antibodies were used at 1:10,000. Goat anti-mouse IgG IRDye 800CW antibody was obtained from LiCor Biosciences (Lincoln, Nebr.) and goat anti-rabbit IgG Alexa Fluor 680 was obtained from Invitrogen.
(§4) Cells were grown in 12-well plates (Corning, Coring, N.Y.) to 90% confluence and then incubated in low-serum (0.1% FBS) media for 16-18 hr. […] A431 cells were then stimulated with 50 ng/ml EGF (Peprotech, Rocky Hill, N.J.) for 15 min. After treatment, cell monolayers were washed with cold PBS (Invitrogen) and immediately lysed by scrapping into 60 uL cold Cell Extraction Buffer (Invitrogen) supplemented with Complete Protease inhibitors (Roche, Indianapolis, Ind.) and PhosphoSTOP (Roche) phosphatase inhibitors.
(§5) Phospho-protein signals were quantitated using Odyssey Infrared Imaging (Li-Cor Biosciences).
(§6) To assess phosphor-EGFR signaling, blots were probed with rabbit anti-Phospho-EGFR (Y1068) and mouse total anti-EGFR antibodies. Phospho-EGFR signal was normalized to total EGFR expression for each sample. […] Normalized data was fitted using a sigmoidal curve analysis program (Graph Pad Prism version 5) with variable Hill slope to determine the EC50 values.

[4] = target: EGFR double mutation L858R/T790M (H1975 cells) (Homo sapiens (Human), UniProt P00533, L858R/T790M); test: Phospho-EGFR signaling (immunoblotting, 1 hr) in H1975 cells; type: cell-based; conditions: signaling EC50 WT (A431) / H1975
Experimental: as §1, §3, §4, §5, §6

Row | SMILES | GI50 ([1]; HCC827 cells, 72 hr) | Ratio WT/mutant (HCC827) ([1]; proliferation GI50 WT (A431) / HCC827) | GI50 (A431 cells (WT EGFR); A-431, A431 cells, 72 hr) | IC50 (EGFR-WT) | GI50 ([2]; NCI-H1975, H1975 cells, 72 hr) | Ratio WT/mutant (H1975) ([2]; proliferation GI50 WT (A431) / H1975) | GI50 ([1]; HCC827, 72 h) | Ratio WT/mutant (HCC827) [3] | GI50 (A431 cells (WT EGFR); A-431, 72 h) | Ratio WT/mutant (H1975) [4] | GI50 ([2]; NCI-H1975, 72 h)
1 | C=CC(=O)Nc1cccc(Nc2nc(Nc3ccc(N4CCOCC4)cc3OC)ncc2Cl)c1 [Compound I-15, N-(3-(5-chloro-2-(2-methoxy-4-morpholinophenylamino)pyrimidin-4-ylamino)phenyl)acrylamide] | 100 to 500 nM | >10 | > 1000 nM | 30 to 100 nM | 500 to 1000 nM | >1 | – | – | – | – | –
2 | C=CC(=O)Nc1cccc(Oc2nc(Nc3ccc(N4CCN(C(=O)OC(C)(C)C)CC4)cc3OC)ncc2Cl)c1 [Compound I-46, tert-butyl 4-(4-(4-(3-acrylamidophenoxy)-5-chloropyrimidin-2-ylamino)-3-methoxyphenyl)piperazine-1-carboxylate] | – | – | – | – | – | – | 100 to 500 nM | >50 | > 1000 nM | >10 | 500 to 1000 nM

Reference: US10434101B2, “Heterocyclic compounds and uses thereof” (Celgene CAR LLC, priority 2010, dated 2019)
